Measured values from patent US12460003B2, “Methods of assessing and treating cancer in subjects having dysregulated lymphatic systems” (Ensemble Group Holdings, priority 2016, dated 2025).

Assays:
[1] = test system: 4T1 and LLC tumor cells, also transfected to overexpress VEGF-C; assay: Example 3: syngeneic 4T1 and LLC models incl. VEGF-C overexpressing tumor cells, lymphangitic carcinomatosis; assay type: in vivo, syngeneic mice; settings: preventative treatment, alone or with an immune modulator or chemotherapy
Method: The experiments from Example 2 are performed using the same animal models (4T1 and LLC) in syngeneic mice. Another group of tumor cells is transfected to overexpress VEGF-C to stimulate severe lymphatic dysregulation. Overexpression of VEGF C by tumor cells can result in a severe lymphatic dysregulation and an extremely aggressive lymphangitic carcinomatosis, which is a subset of the groups of dysregulated lymphatic disorders resistant to immunotherapy (Example 1). […] In this experiment, it is evaluated whether advanced tumors with inherent lymphatic dysregulation or with exaggerated lymphatic dysregulation driven by VEGF C hyperexpression can be treated and whether treatment can prevent mice with cancers from progressing to severe lymphangitic carcinomatosis.
Treatment groups include (1) anti-PD-1 mAb alone; (2) anti-PD-1-mAb plus lymphatic system modulator (anti-VEGF C or anti-VEGF R3 mAb, or SAR131675); (3) cisplatin alone; (4) lymphatic system modulator (anti-VEGF C or anti-VEGF R3 mAb, or SAR131675) plus cisplatin; and (5) negative control (no treatment).

[2] = test system: LLC lung cancer or 4T1 breast cancer cells; assay: Example 2: syngeneic tumor models treated with lymphatic system modulator plus immunotherapy or chemotherapy; assay type: in vivo, syngeneic mice (C57 Black 6 and BALB/c)
Method: One to two million cells of either LLC lung cancer or 4T1 breast cancer cells are subcutaneously implanted into syngeneic mice (C57 Black 6 and BALB/c). Animals are treated with vehicle alone as a control, with chemotherapy (cisplatin), or with immunotherapy alone (anti-PD-1 mAb). Animals are imaged by intravascular ultrasound (IVUS), CT/PET, or MRI, for growth of the primary tumor and for metastatic spread of the tumor. Blood samples are obtained for a multiplexed measure of serum biomarkers of lymphatic biology function (Millipore mouse 24 plex; MAGPMAG-24K). Around Study Day 10, animals are injected with 1-1.5 million more tumor cells into the tail vein. Between Study Days 13 and 16, the primary tumor is surgically resected, and animals resume treatment. […]
Animals are imaged weekly, and blood for serum multiplex measurements is continued and evaluated. Survival studies and analyses are performed, and animals are evaluated based on overall survival, progression-free survival, objective and durable response, and serum biomarker measurements. Lung tissue, lymphatics, and regional lymph nodes and tumor tissue are concurrently evaluated upon animal sacrifice for functional immune evaluation and analysis of the tumor and disease analysis.

Compound | objective and functional outcomes [1] | progression to lymphangitic carcinomatosis [1] | immunological function ([2]; concurrent with immune modulator (checkpoint inhibitor) or chemotherapy (cisplatin)) | response of animals to single agent ([2]; agent alone)
CCn1c(N)c(C(=O)NC)c(=O)c2ccc(C#C[C@@](C)(O)COC)nc21 [SAR131675] | significantly improves | no mouse progresses | functional immunological improvements | –
N.N.[Cl][Pt][Cl] [cisplatin] | – | – | – | no to marginal response
